Assay results reported in patent US20250352550A1, “SUBSTITUTED FUROPYRIDINES FOR THERAPEUTIC USE” (MASARYKOVA UNIVERZITA, priority 2022, published 2025).

The compounds below were run against T1, DDR1 (Homo sapiens, UniProt Q08345) (assay: HotSpot radiometric kinase assay (Reaction Biology), DDR1). Settings: 200 nM kinase, substrate IRS1tide 20 μM, 33P-ATP, 120 minutes at room temperature.
T1 construct: purchased Reaction Biology
T1 sequence (Q08345 19-913): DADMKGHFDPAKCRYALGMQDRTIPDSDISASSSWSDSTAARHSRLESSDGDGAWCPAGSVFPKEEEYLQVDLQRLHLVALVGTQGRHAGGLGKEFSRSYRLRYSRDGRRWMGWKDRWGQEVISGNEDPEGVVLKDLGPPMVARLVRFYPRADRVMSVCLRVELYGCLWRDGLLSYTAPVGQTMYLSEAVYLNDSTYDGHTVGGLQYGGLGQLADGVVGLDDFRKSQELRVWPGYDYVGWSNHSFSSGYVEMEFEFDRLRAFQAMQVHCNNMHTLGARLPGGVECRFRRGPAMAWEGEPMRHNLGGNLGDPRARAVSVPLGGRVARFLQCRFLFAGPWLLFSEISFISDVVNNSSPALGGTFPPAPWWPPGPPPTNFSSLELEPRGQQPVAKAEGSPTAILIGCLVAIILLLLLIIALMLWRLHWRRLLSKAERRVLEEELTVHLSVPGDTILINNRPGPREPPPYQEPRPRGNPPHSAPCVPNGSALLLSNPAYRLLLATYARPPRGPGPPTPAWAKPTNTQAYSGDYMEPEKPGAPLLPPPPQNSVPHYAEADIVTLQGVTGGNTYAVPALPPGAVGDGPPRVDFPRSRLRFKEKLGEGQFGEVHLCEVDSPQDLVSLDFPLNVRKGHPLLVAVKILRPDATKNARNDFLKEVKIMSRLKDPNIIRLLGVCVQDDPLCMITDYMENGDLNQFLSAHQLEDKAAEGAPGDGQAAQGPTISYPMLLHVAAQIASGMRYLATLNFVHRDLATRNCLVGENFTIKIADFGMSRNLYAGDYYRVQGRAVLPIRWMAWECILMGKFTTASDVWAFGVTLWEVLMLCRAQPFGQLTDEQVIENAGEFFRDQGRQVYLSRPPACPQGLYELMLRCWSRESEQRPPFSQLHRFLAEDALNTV
Type: biochemical
Method: (§1) The compounds were profiled in the HotSpot radiometric assays (Reaction Biology).
Briefly, • 1. Substrate indicated in Table 1 was dissolved in freshly prepared reaction buffer (20 mM HEPES (pH 7.5), 10 mM MgCl2, 1 mM EGTA, 0.01% Brij35, 0.02 mg/ml BSA, 0.1 mM Na3VO4, 2 mM DTT, 1% DMSO) at the concentration indicated in Table 1. • 2. Corresponding kinase (concentration indicated in Table 1) was added and the mixture was gently mixed. • 3. Tested compound dissolved in DMSO was added into the kinase reaction mixture. • 4. ^33P-ATP (specific activity 0.01 μCi/μL final) was added into the reaction mixture to initiate the reaction. • 5. The kinase reaction was incubated for 120 minutes at room temperature. • 6. […] The radioactive phosphorylated substrate remaining on the filter paper was measured.
(§2) Kinase activity data were expressed as the percent remaining kinase activity in tested samples compared to the vehicle (DMSO) reactions. IC50 values and curve fits were obtained using Prism4 Software (GraphPad).
For `c1cncc(-c2coc3cc(-c4ccc(N5CCNCC5)cc4)cnc23)c1` [Preparative Example 11, 6-(4-(piperazin-1-yl)phenyl)-3-(pyridin-3-yl)furo[3,2-b]pyridine], the IC50 was 294 nM.
Work on `COc1ccccc1-c1coc2cc(-c3ccc(N4CCNCC4)cc3)cnc12` [Preparative Example 17, 3-(2-methoxyphenyl)-6-(4-(piperazin-1-yl)phenyl)furo[3,2-b]pyridine] yielded an IC50 of 184 nM.
For `N#Cc1cccc(-c2coc3cc(-c4ccc(N5CCNCC5)cc4)cnc23)c1` [Preparative Example 20, 3-(6-(4-(piperazin-1-yl)phenyl)furo[3,2-b]pyridin-3-yl)benzonitrile], the IC50 was 160 nM.
`c1cc(-c2coc3cc(-c4ccc(N5CCNCC5)nc4)cnc23)ccn1` [Preparative Example 25, 6-(6-(piperazin-1-yl)pyridin-3-yl)-3-(pyridin-4-yl)furo[3,2-b]pyridine] gave an IC50 of 791 nM.
With `CN1CCN(c2ccc(-c3cnc4c(-c5cccc(-c6ccccc6)c5)coc4c3)cc2)CC1` [Preparative Example 158, 3-([1,1′-biphenyl]-3-yl)-6-(4-(4-methylpiperazin-1-yl)phenyl)furo[3,2-b]pyridine] the IC50 was 184 nM.
`C(#Cc1coc2cc(-c3ccc(N4CCNCC4)cc3)cnc12)c1ccccc1` [Preparative Example 191, 1-{4-[3-(2-phenylethynyl)furo[3,2-b]pyridin-6-yl]phenyl}piperazine] was tested, and the IC50 was 329 nM.
With `CCCc1oc2cc(-c3ccc(N4CCN(C)CC4)cc3)cnc2c1-c1ccc(C(N)=O)cc1` [Preparative Example 243, 4-{6-[4-(4-methylpiperazin-1-yl)phenyl]-2-propylfuro[3,2-b]pyridin-3-yl}benzamide] the IC50 was 208 nM.
In the case of `CCCc1oc2cc(-c3ccc(N4CCN(C)CC4)cc3)cnc2c1-c1cnn(C)c1` [Preparative Example 245, 1-methyl-4-{4-[3-(1-methyl-1H-pyrazol-4-yl)-2-propylfuro[3,2-b]pyridin-6-yl]phenyl}piperazine], the IC50 is reported as 312 nM.
Work on `CN1CCN(c2ccc(-c3cnc4c(-c5ccccc5)c(-c5ccccc5)oc4c3)cc2)CC1` [Preparative Example 249, 1-(4-{2,3-diphenylfuro[3,2-b]pyridin-6-yl}phenyl)-4-methylpiperazine] yielded an IC50 of 549 nM.
Work on `COc1ccc(-c2coc3cc(-c4ccc(N5CCN(C)CC5)cc4)cnc23)cn1` [Preparative Example 259, 3-(6-methoxypyridin-3-yl)-6-(4-(4-methylpiperazin-1-yl)phenyl)furo[3,2-b]pyridine] yielded an IC50 of 261 nM.

These compounds were tested against T2, FLT3 (Homo sapiens, UniProt P36888) (assay: HotSpot radiometric kinase assay (Reaction Biology), FLT3). Settings: 4 nM kinase, substrate ABLtide 20 μM, 33P-ATP, 120 minutes at room temperature.
T2 construct: purchased Reaction Biology
T2 sequence (P36888 27-993): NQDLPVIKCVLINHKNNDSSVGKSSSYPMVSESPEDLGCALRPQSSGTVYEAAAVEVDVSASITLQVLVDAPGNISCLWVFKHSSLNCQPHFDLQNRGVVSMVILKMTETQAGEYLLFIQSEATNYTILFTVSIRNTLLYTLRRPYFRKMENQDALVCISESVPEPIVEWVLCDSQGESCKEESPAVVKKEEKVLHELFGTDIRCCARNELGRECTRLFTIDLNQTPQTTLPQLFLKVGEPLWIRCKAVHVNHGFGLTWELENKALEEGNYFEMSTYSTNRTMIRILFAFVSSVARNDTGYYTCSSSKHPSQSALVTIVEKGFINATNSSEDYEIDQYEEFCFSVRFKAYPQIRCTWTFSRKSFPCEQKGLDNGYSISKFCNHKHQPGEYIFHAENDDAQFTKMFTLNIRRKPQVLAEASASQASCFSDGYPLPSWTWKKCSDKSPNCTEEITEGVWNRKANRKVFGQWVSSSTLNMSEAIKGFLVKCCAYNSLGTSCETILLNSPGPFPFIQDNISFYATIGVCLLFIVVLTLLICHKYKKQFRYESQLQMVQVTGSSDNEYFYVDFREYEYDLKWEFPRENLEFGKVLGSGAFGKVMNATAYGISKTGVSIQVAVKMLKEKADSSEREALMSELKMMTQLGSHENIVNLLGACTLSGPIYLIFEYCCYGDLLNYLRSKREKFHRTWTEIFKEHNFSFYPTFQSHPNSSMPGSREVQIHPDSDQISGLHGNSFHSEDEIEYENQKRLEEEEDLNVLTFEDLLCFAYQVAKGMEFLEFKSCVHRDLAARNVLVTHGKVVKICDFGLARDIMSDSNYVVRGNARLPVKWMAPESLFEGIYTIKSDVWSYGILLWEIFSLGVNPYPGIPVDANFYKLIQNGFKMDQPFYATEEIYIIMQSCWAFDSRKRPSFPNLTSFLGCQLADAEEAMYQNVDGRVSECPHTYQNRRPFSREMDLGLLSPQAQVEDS
Type: biochemical
Method: as §1
Briefly, • 1. Substrate indicated in Table 1 was dissolved in freshly prepared reaction buffer (20 mM HEPES (pH 7.5), 10 mM MgCl2, 1 mM EGTA, 0.01% Brij35, 0.02 mg/ml BSA, 0.1 mM Na3VO4, 2 mM DTT, 1% DMSO) at the concentration indicated in Table 1. • 2. Corresponding kinase (concentration indicated in Table 1) was added and the mixture was gently mixed. • 3. Tested compound dissolved in DMSO was added into the kinase reaction mixture. • 4. ^33P-ATP (specific activity 0.01 μCi/μL final) was added into the reaction mixture to initiate the reaction. • 5. The kinase reaction was incubated for 120 minutes at room temperature. • 6. Reaction mixture was spotted onto P81 ion exchange paper (Whatman K 3698-915). • 7. The filters were extensively washed with […]. • 7. The radioactive phosphorylated substrate remaining on the filter paper was measured.
as §2
Table 2 summarizes the inhibitory activities of indicated compounds tested in the in vitro kinase assays described above.
With `NC(=O)Nc1cccc(-c2coc3cc(-c4ccccc4)cnc23)c1` [1-(3-(6-phenylfuro[3,2-b]pyridin-3-yl)phenyl)urea] the IC50 was 46 nM.
Compound `Cc1cc(-c2coc3cc(-c4ccc(N5CCNCC5)cc4)cnc23)cc(C)n1` [Preparative Example 8, 3-(2,6-dimethylpyridin-4-yl)-6-(4-(piperazin-1-yl)phenyl)furo[3,2-b]pyridine] has an IC50 of 279 nM.
For `c1cncc(-c2coc3cc(-c4ccc(N5CCNCC5)cc4)cnc23)c1` [Preparative Example 11, 6-(4-(piperazin-1-yl)phenyl)-3-(pyridin-3-yl)furo[3,2-b]pyridine], the IC50 was 25 nM.
`COc1ccccc1-c1coc2cc(-c3ccc(N4CCNCC4)cc3)cnc12` [Preparative Example 17, 3-(2-methoxyphenyl)-6-(4-(piperazin-1-yl)phenyl)furo[3,2-b]pyridine] gave an IC50 of 226 nM.
Compound `N#Cc1cccc(-c2coc3cc(-c4ccc(N5CCNCC5)cc4)cnc23)c1` [Preparative Example 20, 3-(6-(4-(piperazin-1-yl)phenyl)furo[3,2-b]pyridin-3-yl)benzonitrile] has an IC50 of 90 nM.
`c1ccc(-c2cnc3c(-c4ccncc4)coc3c2)cc1` [Preparative Example 22, 6-phenyl-3-(pyridin-4-yl)furo[3,2-b]pyridine] was tested, and the IC50 was 183 nM.
In the case of `c1cc(-c2coc3cc(-c4ccc(N5CCOCC5)nc4)cnc23)ccn1` [Preparative Example 23, 6-(6-morpholinopyridin-3-yl)-3-(pyridin-4-yl)furo[3,2-b]pyridine], the IC50 is reported as 99 nM.
`c1cc(-c2coc3cc(-c4ccc(N5CCNCC5)nc4)cnc23)ccn1` [Preparative Example 25, 6-(6-(piperazin-1-yl)pyridin-3-yl)-3-(pyridin-4-yl)furo[3,2-b]pyridine] gave an IC50 of 49 nM.
Work on `Nc1ccc(-c2cnc3c(-c4ccncc4)coc3c2)cc1` [Preparative Example 47, 4-(3-(pyridin-4-yl)furo[3,2-b]pyridin-6-yl)aniline] yielded an IC50 of 90 nM.
`c1cc(-c2coc3cc(-c4ccc(N5CCCCC5)nc4)cnc23)ccn1` [Preparative Example 48, 6-(6-(piperidin-1-yl)pyridin-3-yl)-3-(pyridin-4-yl)furo[3,2-b]pyridine] gave an IC50 of 136 nM.
`CC(C)c1ccc(-c2coc3cc(-c4ccc(N5CCNCC5)cc4)cnc23)cc1` [Preparative Example 67, 3-(4-isopropylphenyl)-6-(4-(piperazin-1-yl)phenyl)furo[3,2-b]pyridine] showed an IC50 of 608 nM.
With `Cc1nc2c(-c3ccncc3)coc2cc1-c1ccc(N2CCN(C)CC2)cc1` [Preparative Example 80, 5-methyl-6-(4-(4-methylpiperazin-1-yl)phenyl)-3-(pyridin-4-yl)furo[3,2-b]pyridine] the IC50 was 137 nM.
For `c1ccc(Nc2cnc3c(-c4ccncc4)coc3c2)cc1` [Preparative Example 84, N-phenyl-3-(pyridin-4-yl)furo[3,2-b]pyridin-6-amine], the IC50 was 139 nM.
`CN(C)CCN(C)c1ccc(Nc2cnc3c(-c4ccncc4)coc3c2)cc1` [Preparative Example 98, N^1-(2-(dimethylamino)ethyl)-N^1-methyl-N^4-(3-(pyridin-4-yl)furo[3,2-b]pyridin-6-yl)benzene-1,4-diamine] showed an IC50 of 122 nM.
For `Cc1ccc(NC(=O)c2cccc(-c3coc4cc(-c5ccc(N6CCNCC6)cc5)cnc34)c2)cc1` [Preparative Example 119, 3-(6-(4-(piperazin-1-yl)phenyl)furo[3,2-b]pyridin-3-yl)-N-(p-tolyl)benzamide], the IC50 was 790 nM.
Work on `O=S(=O)(NCc1ccccc1)c1cccc(-c2coc3cc(-c4ccc(N5CCNCC5)cc4)cnc23)c1` [Preparative Example 122, N-benzyl-3-(6-(4-(piperazin-1-yl)phenyl)furo[3,2-b]pyridin-3-yl)benzenesulfonamide] yielded an IC50 of 138 nM.
`c1ncc(-c2coc3cc(-c4ccc(N5CCNCC5)cc4)cnc23)cn1` [Preparative Example 206, 5-{6-[4-(piperazin-1-yl)phenyl]furo[3,2-b]pyridin-3-yl}pyrimidine] was tested, and the IC50 was 203 nM.
`CN1CCN(c2ccc(-c3cnc4c(-c5cccc(C(N)=O)c5F)coc4c3)cc2)CC1` [Preparative Example 214, 2-fluoro-3-(6-(4-(4-methylpiperazin-1-yl)phenyl)furo[3,2-b]pyridin-3-yl)benzamide] was tested, and the IC50 was 496 nM.
Compound `CN1CCN(c2ccc(-c3cnc4c(-c5ccc(CC(N)=O)cc5)coc4c3)cc2)CC1` [Preparative Example 236, 2-(4-(6-(4-(4-methylpiperazin-1-yl)phenyl)furo[3,2-b]pyridin-3-yl)phenyl)acetamide] has an IC50 of 54 nM.
With `CN1CCN(c2ccc(-c3cnc4c(-c5ccc(NC(N)=O)cc5)coc4c3)cc2)CC1` [Preparative Example 251, (4-{6-[4-(4-methylpiperazin-1-yl)phenyl]furo[3,2-b]pyridin-3-yl}phenyl)urea] the IC50 was 113 nM.
Work on `c1ccc(-c2coc3ccc(Nc4ccc(N5CCOCC5)cc4)nc23)cc1` [compound 8B from WO 2015/165428, reference compound] yielded an IC50 of 1950 nM.
For `CN1CCN(c2ccc(Nc3ccc4occ(-c5ccccc5)c4n3)cc2)CC1` [compound 8C from WO 2015/165428, reference compound], the IC50 was 1030 nM.
`c1ccc(-c2coc3ccc(Nc4ccncc4)nc23)cc1` [compound 8D from WO 2015/165428, reference compound] gave an IC50 of 1240 nM.
`c1ccc(Nc2ccc3occ(-c4ccccc4)c3n2)cc1` [compound 8E from WO 2015/165428, reference compound] showed an IC50 of 2720 nM.
